The values that follow come from patent US20140315975A1, “APOPTOSIS-INDUCING AGENT” (NITTO DENKO CORPORATION, priority 2011, published 2014).

What all share (type): cell-based
Data set [1] has as its system M7609 cells. The data set is described as follows: Autophagy-positive cells in GST-π knockdown cells with autophagy inhibitor (LC3 immunofluorescence). As to conditions: GST-π KD M7609 cells + 3-MA (FIG. 16). As to the method:
(§1) Transfection of GST-π siRNA was carried out in accordance with the procedure of Example 1 (2), the medium was then replaced with an antibiotic-free medium, and incubation was carried out for 3 hours. Cells were plated on a cover slip placed in a 35 mm plastic tissue culture dish, the autophagy inhibitor 3-methyl adenine (3-MA, SIGMA) was added so as to give 1 or 5 mM, and following this culturing was carried out for a predetermined time.
The cells cultured in (1) were subjected to immunofluorescence staining using anti-LC3 antibody in the same way as for Example 3 (1).

The subject of data set [2] is M7609 cells. The experiment in a line: TUNEL staining of GST-π knockdown cells with autophagy inhibitor. As to conditions: GST-π siRNA + 1 mM or 5 mM 3-MA. The protocol: as §1
The cells cultured in (1) were subjected to TUNEL staining in the same way as for Example 3 (4).

Data set [3] deals with p-Raf-1 (Ser338). The data set is described as follows: Effect of proteasome inhibitor on Raf-1 expression under GST-π knockdown. As to conditions: 5 μM MG132 for 4 hours versus DMSO (FIG. 4). As to the method: Culturing of M7609 cells and transfection with GST-π siRNA were carried out in accordance with the procedures of Example 1 (1) and (2). On the 2nd day after GST-π siRNA transfection culturing was carried out for 16 hours in a serum-free medium. After treating with 5 μM MG132 for 4 hours, a cell extract was collected. As a control for the MG132 treatment, treatment with 0.05% DMSO was carried out in the same manner. The cell extract thus obtained was subjected to quantitative protein analysis using a Micro BCA Protein Assay Kit (Scramble siRNA-DMSO treated group: 3.36 μg/μL, Scramble siRNA-MG132 treated group: 3.16 μg/μL, GST-π siRNA-DMSO treated group: 3.12 μg/μL, GST-π siRNA-MG132 treated group: 3.16 μg/μL). 20 μg of the cell extract was subjected to SDS-PAGE, and then western blot analysis was carried out in the same way as for Example 1 (3) using an anti-p-Raf-1 (Ser338) antibody and an anti-Raf-1 antibody.

Data set [4] deals with p-EGFR (Tyr1068). The data set is described as follows: Effect of proteasome inhibitor on p-EGFR expression under GST-π knockdown. The following applies: GST-π KD cells, 5 μM MG132 for 2 hours (FIG. 12). As to the method: Culturing of M7609 cells and transfection with GST-π siRNA were carried out in accordance with the procedures of Example 1 (1) and (2). On the 2nd day after transfection with GST-π siRNA, the cells were cultured in serum-free medium for 16 hours. After treating with 5 μM MG132 for 2 hours, a cell extract was collected. As a control for the MG132 treatment, treatment with 0.05% DMSO was carried out in the same manner. The cell extract thus obtained was subjected to quantitative protein analysis using a Micro BCA Protein Assay Kit (Scramble siRNA-DMSO treated group: 11.98 μg/μL, Scramble siRNA-MG132 treated group: 12.29 μg/μL, GST-π siRNA-DMSO treated group: 8.91 μg/μL, GST-π siRNA-MG132 treated group: 9.24 μg/μL). After 80 μg of the cell extract was subjected to SDS-PAGE, a western blot analysis was carried out using anti-p-EGFR (Tyr1068) antibody and anti-EGFR antibody.

In data set [5] the test system is GST-π. The data set is described as follows: Western blot analysis of GST-π knockdown. The following applies: M7609 cells, siRNA transfection, western blot (FIG. 1a). As to the method:
On the day before transfection, M7609 cells were plated on a 100 mm plastic tissue culture dish using 10% FBS-containing RPMI-1640 medium containing no antibiotic so as to give 1×10^6 cells/10 mL. 600 pmol of GST-π siRNA (SEQ ID No: 1: […], siRNA ID#2385, Ambion) was added to 1 mL of Opti-MEM I Reduced Serum Medium (GIBCO) and mixed gently. Subsequently, 35 μL of Lipofectamine RNAiMAX (Invitrogen) was diluted in 1 mL of Opti-MEM I Reduced Serum Medium and mixed gently. The diluted GST-π siRNA and the diluted Lipofectamine RNAiMAX were combined and gently mixed, and then incubated at room temperature for 10 min. During this time, the medium was replaced with 10 mL of Opti-MEM I Reduced Serum Medium. After the 10 min. incubation, the complex between GST-π siRNA and Lipofectamine RNAiMAX was added to the cells and incubated at 37° C. under an atmosphere containing 5% CO2. After 5 hours incubation, it was replaced with 10 mL of 10% FBS-containing RPMI-1640 medium containing no antibiotic. […] On the 1st, 2nd, 3rd, and 4th days after transfection with GST-π siRNA, the number of cells was counted, and knockdown of GST-π was examined. Knockdown of GST-π was analyzed by a western blot method as described below.
Western blot analysis of GST-π knockdown was carried out using cells harvested at above-mentioned each point of time after transfection with GST-π siRNA. […] The cell extract thus obtained was subjected to quantitative protein analysis using a Micro BCA Protein Assay Kit (Thermo SCIENTIFIC) (GST-π siRNA transfectant: 4.35 μg/μL, Scramble siRNA transfectant: 4.56 μg/μL). […] A reaction with a chemiluminescent substrate was then carried out at room temperature for 1 min., and then this chemiluminescence was detected using an X-ray film. Washing between operations was carried out three times by shaking for 5 min using PBS-T. Furthermore, after transfection with siRNA, plating on a 60 mm plastic tissue culture dish was carried out to give 1.0×10^5 cells/5 mL, and the total cell count in the dish was measured using a hemocytometer up to the 4th day.

The test system of data set [6] is LC3. The experiment in a line: Autophagy induction by LC3 western blotting. As to conditions: M7609 cells, western blot with anti-LC3 antibody (FIG. 8). The protocol: Induction of autophagy in GST-π knockdown cells was further analyzed by a western blot analysis of LC3. GST-π knockdown cells obtained by the procedure of Example 1 (2) were plated on a cover slip placed in a 35 mm plastic tissue culture dish so as to give 1×10^5 cells/2 mL. After incubating for a predetermined time, a cell extract was collected and subjected to a western blot analysis. A reaction with a transfer membrane was carried out at 4° C. for 16 hours using anti-LC3B antibody (SIGMA) as a primary antibody. Detection of LC3 molecules was carried out using a chemoluminescent reagent after a reaction with HRP-labeled secondary antibody. Whether or not autophagy was induced was evaluated by a shift of LC3 from type I (18 kDa) to type II (16 kDa).
(Immunoblotting shows a protein as a band on a membrane.)

Residues, ends and D or L forms follow the SMILES beside them. *: point of attachment. Cbz = O=C(OCc1ccccc1)*

On to `Cn1cnc(N)c2ncnc1-2` [3-MA, 3-methyladenine], for which, in data set [1], the “autophagy increased by knockdown of GST-π (proportion of autophagy-positive cells)” value is on record as “suppressed”. Moreover, in data set [2] (2nd to 4th day (FIG. 17 versus FIG. 9)), the “apoptosis-positive cells (TUNEL stained images)” value is “increased markedly”. Further, the “induction of apoptosis (percentage apoptosis over time)” value in data set [2] (dose-dependent (FIG. 18)) is “further induced”.

For `CC(C)C[C@@H](C=O)NC(=O)[C@H](CC(C)C)NC(=O)[C@H](CC(C)C)NC(=O)OCc1ccccc1` [MG132] (Cbz-Leu-Leu-Leu-aldehyde), the “abundance of phosphorylated Raf protein (p-Raf-1 (S338))” value was “increased” in data set [3] (GST-π siRNA transfectant) and “no change” in data set [3] (Scramble siRNA transfectant). Also, in data set [4], the “expression level of p-EGFR” value is listed as “recovered”.

Take “Scramble siRNA: control Scramble siRNA (SEQ ID No: 2: CGAUUCGCUAGACCGGCUUCAUUGCAG, Hokkaido System Science Co., Ltd.) (chemistry not given here) [reference compound]”: the “expression of GST-π” value in data set [5] was “not suppressed”. For the same compound, the “expression of type I and type II LC3” value in data set [6] was “low”.
